{"source": "patent US20140107143A1", "about": "“QUATERNARY OPIOID CARBOXAMIDES” (Rensselaer Polytechnic Institute, priority 2007, published 2014)", "key": {"antinociception": {"test_system": "antinociception", "conditions": "cited from earlier work; for duration of action: 1 mg/kg ip in mice"}, "human κ opioid receptor [1]": {"target": "T1, human κ opioid receptor (Homo sapiens, UniProt P41145)", "T1 sequence (P41145 whole entry)": "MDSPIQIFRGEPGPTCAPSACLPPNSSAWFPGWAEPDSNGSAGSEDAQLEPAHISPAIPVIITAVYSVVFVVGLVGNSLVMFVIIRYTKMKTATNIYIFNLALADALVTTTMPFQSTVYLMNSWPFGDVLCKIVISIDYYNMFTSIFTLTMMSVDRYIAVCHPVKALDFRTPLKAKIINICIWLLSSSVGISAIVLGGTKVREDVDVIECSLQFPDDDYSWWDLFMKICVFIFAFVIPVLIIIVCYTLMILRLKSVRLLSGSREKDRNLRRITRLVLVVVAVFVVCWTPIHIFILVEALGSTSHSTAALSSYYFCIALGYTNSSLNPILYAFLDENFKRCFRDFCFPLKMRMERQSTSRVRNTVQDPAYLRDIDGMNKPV", "assay": "Opioid receptor binding assay, [3H]U69,593 (κ)", "conditions": "for K: δ / K: μ: ratio of Ki values"}, "human δ opioid receptor [2]": {"target": "T2, human δ opioid receptor (Homo sapiens, UniProt P41143)", "T2 sequence (P41143 whole entry)": "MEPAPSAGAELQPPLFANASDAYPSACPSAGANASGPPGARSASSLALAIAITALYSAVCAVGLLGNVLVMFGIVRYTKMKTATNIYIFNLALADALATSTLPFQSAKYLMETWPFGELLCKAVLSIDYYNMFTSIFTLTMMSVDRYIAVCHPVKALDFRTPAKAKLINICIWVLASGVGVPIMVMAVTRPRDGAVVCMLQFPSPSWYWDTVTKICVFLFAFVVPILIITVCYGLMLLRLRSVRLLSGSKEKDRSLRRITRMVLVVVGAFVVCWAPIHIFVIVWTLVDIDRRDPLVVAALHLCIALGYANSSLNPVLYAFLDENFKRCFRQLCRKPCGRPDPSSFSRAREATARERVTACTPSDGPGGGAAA"}, "[3]": {"test_system": "morphine-induced antinociception (tail flick)", "assay": "Tail flick antinociception test", "format": "in vivo, mice", "conditions": "for effect on response to morphine, tail flick: oral", "method": "Antinociception to acute thermal stimuli was assessed using a commercially available tail flick apparatus (Columbus Instruments, Columbus, Ohio). The tail flick test is purported to be primarily a […] reflexive response assay. In this standard model, mice are gently restrained and their tail is placed over a thermal beam. Once the beam is turned on (instant on; 9.3 watts), the time required to reflexively flick the tail is recorded. The maximum response latency (MRL) was set to 10 seconds to avoid potential thermal injury associated with longer exposure times. If there is no response after 10 seconds, mice are removed and the maximum response latency (MRL; 10 s) is recorded.\nMice (n=10/group) were first tested in the tail flick test to determine a baseline response. […] The mice were administered different doses of an opioid antagonist (IP or PO, 60 minutes prior to testing in the tail flick test). […] All results are compared to the saline-morphine treatment group mean response latency."}, "[4]": {"test_system": "morphine's blockade of PGE2-induced diarrhea", "assay": "PGE2 model of gut motility", "format": "in vivo, mice", "method": "To assess the effects of novel, peripherally acting opioid antagonists, we used a PGE2 (a prostaglandin) model of gut motility. PGE2 induces diarrhea within 15 minutes of an intraperitoneal (IP) injection (0.1 mg/kg) in mice.\nMice (n=10/group) were given either an IP injection or oral (PO) administration (via gavage) of a novel opioid antagonist (0-3 mg/kg, IP; 0-30 mg/kg, PO) and placed in a Plexiglas pie cage (Braintree Scientific, Braintree, Mass.). Each pie cage holds up to 10 mice and is 21.5 cm in diameter and 7.5 cm in height. Individual chambers are 5 cm (base) and 9 cm (length). […] 30 minutes later mice were treated with PGE2 (0.1 mg/kg, IP) and again returned to the pie cage. During the final observation, the presence or absence of diarrhea was recorded 15 minutes following PGE2 administration. Mice were only tested once. Saline-saline (10 mL/kg, IP) and saline-morphine were the positive control groups and all results were compared to the saline-morphine treatment group. Data represent the percent of mice with PGE2-induced diarrhea at the time of the final observation."}, "[5]": {"test_system": "morphine-induced antinociception (hot plate)", "assay": "Hot plate antinociception test", "format": "in vivo, mice", "method": "Antinociception to acute thermal stimuli was assessed using a commercially available hot plate apparatus (Columbus Instruments, Columbus, Ohio). The hot plate test is purported to be a supraspinal assay of nociception. The hot plate procedure involves placing each mouse on a heated surface and activating a timer. Mice were placed individually on a hot plate (25.4 cm×25.4 cm surrounded by an acrylic box to prevent the animal from escaping); surface temperature=55° C.) and the response latency to lick either hind paw was recorded. The maximum response latency (MRL) was set to 60 seconds to avoid potential thermal injury associated with longer exposure times. The mouse is removed from the heated surface when it either licks a hind paw in response to the heat or after 60 seconds has elapsed. The latency to respond is recorded and the mouse is returned to its home cage.\nMice (n=10/group) were first tested to determine a baseline response. […] Mice were then administered different doses of an opioid antagonist (IP or PO, 60 minutes prior to testing on the hot plate test). […] All results are compared to the saline-morphine treatment group mean response latency."}, "human μ opioid receptor [6]": {"target": "T3, human μ opioid receptor (Homo sapiens, UniProt P35372)", "T3 sequence (P35372 whole entry)": "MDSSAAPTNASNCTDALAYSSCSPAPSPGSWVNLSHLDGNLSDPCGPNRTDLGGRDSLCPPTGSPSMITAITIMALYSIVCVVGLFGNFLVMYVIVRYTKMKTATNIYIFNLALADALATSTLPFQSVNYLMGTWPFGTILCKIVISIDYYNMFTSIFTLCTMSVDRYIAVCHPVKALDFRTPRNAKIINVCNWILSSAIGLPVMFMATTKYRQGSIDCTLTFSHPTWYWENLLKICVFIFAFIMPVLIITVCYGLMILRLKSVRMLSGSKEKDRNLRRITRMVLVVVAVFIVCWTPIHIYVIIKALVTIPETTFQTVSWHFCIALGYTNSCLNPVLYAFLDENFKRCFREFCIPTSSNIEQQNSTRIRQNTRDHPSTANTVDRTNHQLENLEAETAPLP", "assay": "Opioid receptor binding assay, [3H]DAMGO (μ)"}, "μ opioid receptors": {"test_system": "μ opioid receptors", "conditions": "cited from earlier work"}, "κ opioid receptors": {"test_system": "κ opioid receptors", "conditions": "cited from earlier work"}, "[7]": {"assay": "PK evaluation in rats (plasma, LC-MS/MS)", "format": "in vivo", "conditions": "oral administration, FIG. 4", "method": "Animals were dosed with the example compound and blood samples were collected for 2 hours using the following method. Rats were briefly anesthetized with 1-2% isoflurane and blood samples (approximately […] of whole blood) from a lateral tail vein were collected into tubes containing EDTA. The tubes were centrifuged at 10K×g for 2 minutes to separate plasma. Plasma was pipetted into microcentrifuge vials and stored at −80° C. until plasma levels were determined by liquid chromatography-mass spectrometry/mass spectrometry (LC-MS/MS) (modification of Baranczewski et al., 2006). The lower limit of quantitation (LOQ) for these studies was 1.0 ng/mL and the coefficient of variation for the assay was <4.4%. The mean concentration of the example compound in plasma was calculated for each time point. […]\nA bioanalytical assay was developed and qualified for measurement of the example compound in rat plasma. […] The intra-day accuracy and precision were evaluated by analysis of each 80 ng/mL, 40 ng/mL, and 8 ng/mL assay control (n=5 at each concentration) on the same day. Accuracy was calculated as a percentage ratio of measured concentration to nominal concentration and precision was expressed as the coefficient of variation. […] accuracy and precision were evaluated for each 80 ng/mL, 40 ng/mL, and 8 ng/mL assay control over 10 different runs (n=26 for each control sample). […]"}, "human μ opioid receptor [8]": {"target": "T3, human μ opioid receptor", "assay": "[35S]GTPγS binding assay, mu (compound alone / with DAMGO)", "quoted_text": "In a final volume of 0.5 mL, 12 different concentrations of each test compound were incubated with 15 μg (κ), 10 μg (δ) or 7.5 μg (μ) of CHO cell membranes that stably expressed either the human κ or μ opioid receptor. The assay buffer consisted of 50 mM Tris-HCl, pH 7.4, 3 mM MgCl2, 0.2 mM EGTA, 3 μM GDP, and 100 mM NaCl. The final concentration of [35S]GTPγS was 0.080 nM. […] Binding was initiated by the addition of the membranes. […] Data are the mean Emax and EC50 values±S.E.M. from at least three separate experiments, performed in triplicate."}, "human κ opioid receptor [9]": {"target": "T1, human κ opioid receptor", "assay": "[35S]GTPγS binding assay, kappa (compound alone / with U50,488)", "format": "biochemical", "parameters": "expressed in transfected cells", "from_the_text": "Part 4. […] Binding was initiated by the addition of the membranes."}, "human δ opioid receptor [10]": {"target": "T2, human δ opioid receptor", "assay": "biochemical"}, "[11]": {"conditions": "read-out: [3H]U69,593 (K) Ki, CHO membranes, human receptor, mean ± SEM"}, "[12]": {"conditions": "read-out: [3H]DAMGO (μ) Ki, CHO membranes, human receptor, mean ± SEM"}}, "note": "Where two headings read alike, the source gives them in different places.", "data": [{"compound": "C[C@H]1[C@H]2Cc3ccc(O)cc3[C@]1(C)CCN2CC1CC1", "note": "[cyclazocine]", "values": [{"measurement": "duration of action", "setting": "antinociception", "result": 2, "unit": "h"}]}, {"compound": "C[N+]1(CC2CC2)CC[C@]23c4c5ccc(C(N)=O)c4O[C@H]2C(=O)CC[C@@]3(O)[C@H]1C5", "note": "(stereo partly shown) [Compound 4, 3-Carboxamido-naltrexone methiodide]", "values": [{"measurement": "K: δ", "setting": "human κ opioid receptor [1]", "result": 143}, {"measurement": "K: μ", "setting": "human κ opioid receptor [1]", "result": 0.18}, {"measurement": "Ki", "setting": "human κ opioid receptor [1]; [11]", "result": "0.21 ± 0.022", "unit": "µM"}, {"measurement": "melting point", "result": "189 to 190", "unit": "°C"}, {"measurement": "[3H]Naltrindole (δ) inhibition", "setting": "human δ opioid receptor [2]; @ 10 μm", "result": 31, "unit": "% inh. @ 10 μm"}]}, {"compound": "C[N@+]1(CC2CC2)CC[C@]23CCCC[C@@]2(O)[C@H]1Cc1ccc(C(N)=O)c(O)c13.[Cl-]", "note": "[Compound 14, (17R)-17-(Cyclopropylmethyl)-4,14-dihydroxy-17-methylmorphinan-17-ium-3-carboxamide chloride]", "values": [{"measurement": "difference from baseline, tail flick", "setting": "[3]; even at 30 mg/kg", "result": "no statistical difference from baseline"}, {"measurement": "effect on morphine's ability to block PGE2-induced diarrhea", "setting": "[4]; IP administration at 3 mg/kg", "result": "reduces morphine's ability to block PGE2-induced diarrhea"}, {"measurement": "central activity (hot plate)", "setting": "[5]; hot plate test", "result": "poor central activity"}, {"measurement": "dose at which a statistical difference from baseline is first seen, hot plate", "setting": "[5]; hot plate test", "result": 30, "unit": "mg/kg"}, {"measurement": "hot plate dose relative to dose required in the PGE2 test", "setting": "[5]; hot plate vs PGE2 test", "result": "3 to 10", "unit": "times higher dose"}]}, {"compound": "C[N+]1(CC2CC2)CC[C@]23c4c5ccc(O)c4O[C@H]2C(=O)CC[C@@]3(O)[C@H]1C5", "note": "(stereo partly shown) [Compound 2, Naltrexone Methiodide, reference compound]", "values": [{"measurement": "K: δ", "setting": "human κ opioid receptor [1]", "result": 143}, {"measurement": "K: μ", "setting": "human κ opioid receptor [1]", "result": 0.32}, {"measurement": "Ki", "setting": "human κ opioid receptor [1]; [11]", "result": "0.0063 ± 0.00046", "unit": "µM"}, {"measurement": "Ki", "setting": "human μ opioid receptor [6]; [12]", "result": "0.002 ± 0.00027", "unit": "µM"}]}, {"compound": "CC1C2Cc3ccc(O)cc3C1(C)CC[N+]2(C)CC1CC1", "note": "(stereo not shown) [Compound 8, Cyclazocine methiodide]", "values": [{"measurement": "K: δ", "setting": "human κ opioid receptor [1]", "result": 95}, {"measurement": "K: μ", "setting": "human κ opioid receptor [1]", "result": 0.2}, {"measurement": "melting point", "result": "165 to 168", "unit": "°C"}]}, {"compound": "C[C@H]1C2Cc3ccc(C(N)=O)cc3[C@@]1(C)CCN2CC1CC1", "note": "[Compound 8-CAC, 8-carboxamidocyclazocine]", "values": [{"measurement": "affinity for μ opioid receptors", "setting": "μ opioid receptors", "result": "high affinity"}, {"measurement": "duration of action", "setting": "antinociception", "result": 15, "unit": "h"}, {"measurement": "antinociception activity", "setting": "antinociception; in vivo, mice", "result": "high antinociception activity"}, {"measurement": "affinity for κ opioid receptors", "setting": "κ opioid receptors", "result": "high affinity"}]}, {"compound": "C[N+]1(CC2CC2)CC[C@]23CC(=O)CC[C@@]2(O)[C@H]1Cc1ccc(C(N)=O)c(O)c13", "note": "(stereo partly shown) [Compound 6, 3-Carboxamido-4-hydroxy-naltrexone methiodide]", "values": [{"measurement": "blocking the analgesic effects of morphine, tail flick", "setting": "[3]; mice, IP route", "result": "moderately effective"}, {"measurement": "blocking the effects of morphine, tail flick", "setting": "[3]; mice, oral administration", "result": "much less effective"}, {"measurement": "effect on response to morphine, tail flick", "setting": "[3]; mice, 10 mg/kg", "result": "did not affect the response to morphine"}, {"measurement": "effect on response to morphine, tail flick", "setting": "[3]; mice, maximum dose 30 mg/kg, FIG. 2", "result": "only partially reverse"}, {"measurement": "activity in blocking PGE2-induced diarrhea", "setting": "[4]; mice, doses of 1-10 mg/kg, both routes (IP, PO)", "result": "very good activity"}, {"measurement": "reversal of the effects of morphine on PGE2-induced diarrhea", "setting": "[4]; mice, each route, IP and PO, FIG. 1", "result": "dose-dependent reversal of the effects of morphine"}, {"measurement": "absorption", "setting": "[7]", "result": "low"}, {"measurement": "K: μ", "setting": "human κ opioid receptor [1]", "result": 0.17}, {"measurement": "Ki", "setting": "human κ opioid receptor [1]; [11]", "result": "0.0077 ± 0.0009", "unit": "µM"}, {"measurement": "Emax", "setting": "human μ opioid receptor [8]; read-out: Mu Cmpd. Alone Emax", "result": "-0.28 ± 0.39", "unit": "%"}, {"measurement": "IC50", "setting": "human μ opioid receptor [8]; read-out: Mu With DAMGO IC50, with 200 nM DAMGO, Mean ± S.E", "result": 0.052, "unit": "µM"}, {"measurement": "Mu With DAMGO Imax", "setting": "human μ opioid receptor [8]; with 200 nM DAMGO, Mean ± S.E", "result": "96 ± 1.2", "unit": "%"}, {"measurement": "melting point", "result": "197 to 198", "unit": "°C"}, {"measurement": "Ki", "setting": "human δ opioid receptor [2]; read-out: [3H]Naltrindole (δ) Ki, CHO membranes, human receptor, mean ± SEM", "result": "0.28 ± 0.021", "unit": "µM"}, {"measurement": "Ki", "setting": "human μ opioid receptor [6]; [12]", "result": "0.0013 ± 0.00013", "unit": "µM"}, {"measurement": "blocking the analgesic effects of morphine, hot plate", "setting": "[5]; mice, IP route, FIG. 3", "result": "marginally effective"}, {"measurement": "change from the baseline morphine response, hot plate", "setting": "[5]; mice, IP, 3 mg/kg", "result": "20-25%"}, {"measurement": "effect on the response to morphine, hot plate", "setting": "[5]; mice, orally, doses up to 30 mg/kg", "result": "no effect"}, {"measurement": "agonist properties at the κ opioid receptor", "setting": "human κ opioid receptor [9]; compound alone", "result": "did not display any agonist properties"}, {"measurement": "Emax", "setting": "human κ opioid receptor [9]; compound alone, Mean ± S.E, read-out: Kappa Cmpd. Alone Emax", "result": "3 ± 2.6", "unit": "%"}, {"measurement": "IC50", "setting": "human κ opioid receptor [9]; with 100 nM U50,488, Mean ± S.E", "result": "7.8 ± 0.53", "unit": "µM"}]}, {"compound": "CC1C2Cc3ccc(C(N)=O)cc3C1(C)CC[N+]2(C)CC1CC1", "note": "(stereo not shown) [Compound 10, 8-Carboxamido-cyclazocine methiodide]", "values": [{"measurement": "Ki", "setting": "human κ opioid receptor [1]", "result": "0.017 ± 0.0012", "unit": "µM"}, {"measurement": "K: δ", "setting": "human κ opioid receptor [1]", "result": 21}, {"measurement": "K: μ", "setting": "human κ opioid receptor [1]", "result": 0.082}, {"measurement": "melting point", "result": "237 to 238", "unit": "°C"}, {"measurement": "Ki", "setting": "human μ opioid receptor [6]", "result": "0.0014 ± 0.00019", "unit": "µM"}, {"measurement": "Ki", "setting": "human δ opioid receptor [10]", "result": "0.36 ± 0.0065", "unit": "µM"}]}]}
